Reference: ChEMBL document CHEMBL1909046, “DrugMatrix in vitro pharmacology data”
*1 amine or outer side, *2 acyl side, *3 side chain or, on linkers, in order; H or OH if unused. Where a SMILES comes first, the peptide text is derived from it. Bridges are numbered along the chain shown (N, C = ends). Roman numbers before positions name the chains, in order. [ ]: non-standard residue; d: D form. Actinocin(1to9) = Cc1c2oc3c(C)ccc(C(=O)[*:2])c3nc-2c(C(=O)[*:1])c(N)c1=O; NMeV = CN[C@H](C(=O)O)C(C)C; Sar = CNCC(=O)O

Key:
[1] = DRUGMATRIX: Purinergic P2X radioligand binding (ligand: [3H] alpha, beta-Methylene-ATP); format: cell membranes, Oryctolagus cuniculus, New Zealand albino, Urinary bladder, Membrane; details: Not Active = under 50% inhibition at 10 µM
Acetylcholinesterase = Acetylcholinesterase (Homo sapiens, UniProt P22303); experiment: DRUGMATRIX: Acetylcholinesterase enzyme inhibition (substrate: acetylthiocholine); format: cell-based, HEK293; details: Not Active = under 50% inhibition at 10 µM
Chain of Acetylcholinesterase (P22303 whole entry): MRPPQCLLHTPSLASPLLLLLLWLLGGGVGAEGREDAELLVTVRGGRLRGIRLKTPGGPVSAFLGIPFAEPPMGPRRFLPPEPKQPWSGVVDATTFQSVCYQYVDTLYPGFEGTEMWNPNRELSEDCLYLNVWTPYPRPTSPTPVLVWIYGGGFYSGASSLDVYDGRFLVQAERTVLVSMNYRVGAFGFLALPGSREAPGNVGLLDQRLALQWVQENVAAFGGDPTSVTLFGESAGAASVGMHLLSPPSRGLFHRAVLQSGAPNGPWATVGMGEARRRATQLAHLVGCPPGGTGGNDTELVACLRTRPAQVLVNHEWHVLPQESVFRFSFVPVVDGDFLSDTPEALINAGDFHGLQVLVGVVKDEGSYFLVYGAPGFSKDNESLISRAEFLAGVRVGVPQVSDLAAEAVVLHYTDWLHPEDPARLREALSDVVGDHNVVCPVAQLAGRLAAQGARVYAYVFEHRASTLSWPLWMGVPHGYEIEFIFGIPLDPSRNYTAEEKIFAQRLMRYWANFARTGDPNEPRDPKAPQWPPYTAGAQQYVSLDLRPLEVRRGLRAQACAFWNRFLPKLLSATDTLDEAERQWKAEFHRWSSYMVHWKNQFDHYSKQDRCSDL

Cytochrome P450 2C19 = Cytochrome P450 2C19 (Homo sapiens, UniProt P33261); details: bti-tn-5b1-4; also: in other assays of this panel Not Active means under 50% inhibition at 10 µM
Chain of Cytochrome P450 2C19 (P33261 whole entry): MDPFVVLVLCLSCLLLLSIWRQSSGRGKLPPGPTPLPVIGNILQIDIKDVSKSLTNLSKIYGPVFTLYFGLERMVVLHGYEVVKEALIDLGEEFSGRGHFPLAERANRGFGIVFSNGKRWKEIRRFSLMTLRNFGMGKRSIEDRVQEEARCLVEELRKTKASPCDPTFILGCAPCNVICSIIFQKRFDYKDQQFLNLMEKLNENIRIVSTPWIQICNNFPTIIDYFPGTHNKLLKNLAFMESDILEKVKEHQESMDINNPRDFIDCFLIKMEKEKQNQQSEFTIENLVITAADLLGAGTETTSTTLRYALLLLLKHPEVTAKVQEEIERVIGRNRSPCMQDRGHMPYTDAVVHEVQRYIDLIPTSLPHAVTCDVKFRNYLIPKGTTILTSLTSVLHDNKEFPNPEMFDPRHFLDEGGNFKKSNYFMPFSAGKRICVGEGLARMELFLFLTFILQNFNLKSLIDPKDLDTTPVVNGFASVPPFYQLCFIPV

[2] = DRUGMATRIX: Phorbol Ester radioligand binding (ligand: [3H] PDBu); format: cell membranes, Mus musculus, ICR, Brain, Membrane; details: Not Active = under 50% inhibition at 10 µM
Histamine H2 receptor = Histamine H2 receptor (Homo sapiens, UniProt P25021); format: cell membranes, CHO-K1, Membrane; details: cho-k1; also: in other assays of this panel Not Active means under 50% inhibition at 10 µM
Chain of Histamine H2 receptor (P25021 whole entry): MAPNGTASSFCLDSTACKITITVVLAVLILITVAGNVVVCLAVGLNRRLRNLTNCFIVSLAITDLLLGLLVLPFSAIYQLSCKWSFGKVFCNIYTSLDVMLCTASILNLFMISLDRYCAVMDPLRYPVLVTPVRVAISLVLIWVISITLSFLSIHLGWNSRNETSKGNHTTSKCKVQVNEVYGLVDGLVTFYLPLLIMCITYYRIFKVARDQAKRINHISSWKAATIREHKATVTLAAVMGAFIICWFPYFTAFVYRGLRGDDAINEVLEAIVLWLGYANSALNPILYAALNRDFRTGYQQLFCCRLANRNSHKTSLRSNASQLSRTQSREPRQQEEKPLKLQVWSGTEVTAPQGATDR

[3] = biological target: Beta-1 adrenergic receptor (Homo sapiens, UniProt P08588); experiment: DRUGMATRIX: Adrenergic beta1 radioligand binding (ligand: [125I] Cyanopindolol); format: cell membranes, CHO-K1, Membrane; details: Not Active = under 50% inhibition at 10 µM
Chain of Beta-1 adrenergic receptor (P08588 whole entry): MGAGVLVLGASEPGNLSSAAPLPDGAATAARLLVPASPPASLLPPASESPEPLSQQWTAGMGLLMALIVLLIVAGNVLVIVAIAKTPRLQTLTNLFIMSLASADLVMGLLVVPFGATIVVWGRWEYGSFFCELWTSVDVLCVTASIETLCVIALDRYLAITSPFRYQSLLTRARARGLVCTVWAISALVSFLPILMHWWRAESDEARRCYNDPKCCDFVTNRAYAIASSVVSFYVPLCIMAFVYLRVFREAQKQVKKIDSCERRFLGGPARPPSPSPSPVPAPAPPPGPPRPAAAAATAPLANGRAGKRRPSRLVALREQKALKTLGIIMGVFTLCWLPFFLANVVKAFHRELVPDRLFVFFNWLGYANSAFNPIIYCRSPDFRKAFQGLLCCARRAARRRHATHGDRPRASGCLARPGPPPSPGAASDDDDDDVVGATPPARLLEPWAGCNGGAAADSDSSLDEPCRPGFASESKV

SMILES	IC50 [1]	Ki [1]	IC50 (Acetylcholinesterase; hek293)	IC50 (Cytochrome P450 2C19)	Ki (Cytochrome P450 2C19)	IC50 [2]	Ki [2]	IC50 (Histamine H2 receptor)	IC50 ([3]; cho-k1)	IC50 ([3]; read-out: IC50)	Ki ([3]; read-out: Ki)	IC50 (Acetylcholinesterase; read-out: IC50)
Cc1ccc(-c2cc(C(F)(F)F)nn2-c2ccc(S(N)(=O)=O)cc2)cc1 [CELECOXIB]	Not Active	Not Active	Not Active	Not Active	Not Active	Not Active	Not Active	Not Active	Not Active			
O=C(O)CCCc1ccc(N(CCCl)CCCl)cc1 [CHLORAMBUCIL]	Not Active	Not Active	Not Active	Not Active	Not Active	Not Active	Not Active	Not Active	Not Active			
Cc1cc(C2CCCCC2)n(O)c(=O)c1 [CICLOPIROX]	Not Active	Not Active	Not Active	Not Active	Not Active	Not Active	Not Active	Not Active	Not Active			
CC1=C2C(=CO[C@H](C)[C@H]2C)C(O)=C(C(=O)O)C1=O [CITRININ]	Not Active	Not Active	Not Active	Not Active	Not Active	Not Active	Not Active	Not Active	Not Active			
CC(C)(C)NCC(O)c1cc(Cl)c(N)c(Cl)c1 (configuration not stated) [CLENBUTEROL]	Not Active	Not Active	Not Active	Not Active	Not Active	Not Active	Not Active	Not Active		120 nM	69 nM	
Clc1cccc(Cl)c1NC1=NCCN1 [CLONIDINE]	Not Active	Not Active	Not Active	Not Active	Not Active	Not Active	Not Active	Not Active	Not Active			
Cc1cc(C(C#N)c2ccc(Cl)cc2)c(Cl)cc1NC(=O)c1cc(I)cc(I)c1O (configuration not stated) [CLOSANTEL]	Not Active	Not Active		Not Active	Not Active	Not Active	Not Active	Not Active	Not Active			2950 nM
Cc1onc(-c2ccccc2Cl)c1C(=O)N[C@@H]1C(=O)N2[C@@H]1SC(C)(C)[C@@H]2C(=O)O [CLOXACILLIN]	Not Active	Not Active	Not Active	Not Active	Not Active	Not Active	Not Active	Not Active	Not Active			
CC1CC(OC(=O)C(O)c2ccccc2)CC(C)(C)C1 (configuration not stated) [CYCLANDELATE]	Not Active	Not Active	Not Active	Not Active	Not Active	Not Active	Not Active	Not Active	Not Active			
Cc1c2oc3c(C)ccc(C(=O)N[C@@H]4C(=O)N[C@H](C(C)C)C(=O)N5CCC[C@H]5C(=O)N(C)CC(=O)N(C)[C@@H](C(C)C)C(=O)O[C@@H]4C)c3nc-2c(C(=O)N[C@@H]2C(=O)N[C@H](C(C)C)C(=O)N3CCC[C@H]3C(=O)N(C)CC(=O)N(C)[C@@H](C(C)C)C(=O)O[C@@H]2C)c(N)c1=O [DACTINOMYCIN] (I: T[dV]P[Sar][NMeV] / II: T[dV]P[Sar][NMeV]; ester I:1-I:C, II:1-II:C; linker I:N-II:N via Actinocin(1to9))	Not Active	Not Active	Not Active	Not Active	Not Active	Not Active	Not Active	Not Active	Not Active			
Cc1c(O)c(=O)ccn1C [DEFERIPRONE]	Not Active	Not Active	Not Active	Not Active	Not Active	Not Active	Not Active	Not Active	Not Active			
O=c1oc2ccccc2c(O)c1Cc1c(O)c2ccccc2oc1=O [DICUMAROL]	Not Active	Not Active	Not Active	Not Active	Not Active	Not Active	Not Active	Not Active	Not Active			
C[C@H]1O[C@@H](O[C@H]2[C@@H](O)C[C@H](O[C@H]3[C@@H](O)C[C@H](O[C@H]4CC[C@@]5(C)[C@H](CC[C@@H]6[C@@H]5C[C@@H](O)[C@]5(C)[C@@H](C7=CC(=O)OC7)CC[C@]65O)C4)O[C@@H]3C)O[C@@H]2C)C[C@H](O)[C@@H]1O [DIGOXIN]	Not Active	Not Active	Not Active	Not Active	Not Active	Not Active	Not Active	Not Active	Not Active			
CC(=O)O[C@@]12CO[C@@H]1C[C@H](O)[C@@]1(C)C(=O)[C@H](O)C3=C(C)[C@@H](OC(=O)[C@H](O)[C@@H](NC(=O)OC(C)(C)C)c4ccccc4)C[C@@](O)([C@@H](OC(=O)c4ccccc4)[C@H]21)C3(C)C.O.O.O [DOCETAXEL]	Not Active	Not Active	Not Active	Not Active	Not Active	Not Active	Not Active	Not Active	Not Active			
